Experimental data taken from patent US4434159A, “Pharmaceutical composition for intrarectal administration, and suppository prepared therefrom” (Teijin Limited, priority 1980, dated 1984).

Legend:
[1] = test system: serum calcium level; assay: Effect of the amount of the absorption aid on the decrease of serum calcium level (calcitonin suppositories, rats); format: in vivo; settings: intrarectal, SD male rats, one hour
Procedure: (§1) (a) About 14 g of each of the absorption aids shown in Table 1 was added to 186 g of cacao butter, and they were well mixed by a grinder. Salmon caltintonin or [Asu^1,7 ]-eel calcitonin was added gradually and mixed to form a homogeneous composition. The composition was slightly heated to make it flowable, and about 80 mg of it was cast into a suppository container made for rats, and allowed to solidify by cooling to obtain a rat suppository having a diameter of about 3 mm and a length of about 6 mm. The suppository contained 0.7 MRC units of calcitonin.
(§2) The suppository was administered to the rectum of each of […] male rats (body weight about 200 g) and the concentration of calcium in the serum was measured 1, 2, 3, and 5 hours later to examine the absorbabillity of calcitonin from the rectum. The calcium level in the serum was measured by using a calcium level measuring kit of Yatoron Co., and five rats were used for each blood withdrawal. The results are shown in Table 1 as the decrease (%) of the serum calcium level from that before administration of the calcitonin-containing suppository.
(b) Suppositories containing 0.7 MRC unit of [Aus^1.7 ]-eel calcitonin per 80 mg were prepared in the same way as in (a) above by including each of the absorption aids shown in Table 2 in the amounts indicated. Each of the suppositories was intrarectally administered to SD male rats in the same way as in (a) above, and the decrease (%) of the serum calcium level was measured one hour after the administration.

[2] = test system: mucous membrane of the eyes (cornea, iris, conjunctiva); assay: Draize eye irritation test of absorption aids in rabbits
Procedure: Nothing was applied to the other eye. Thus, irritation of the absorption aid to the mucous membrane of the eyes were examined, and scores were calculated in accordance with the Draize's eye irritation evaluating method [Association of Foods, Drugs and Cosmetics" (1957)].

[3] = test system: serum calcium level; assay: Decrease of the serum calcium level after administration of calcitonin suppositories to rats; format: in vivo; settings: 0.7 u/kg intramuscularly administered
Procedure: as §1, §2
Furthermore, [Aus^1,7 ]-eel calcitonin was intramuscularly injected to rats, and the decrease in serum calcium level was also examined.

[4] = absorption aid 0.8% of suppository with 0.7 MRC unit [Aus^1.7]-eel calcitonin per 80 mg
[5] = absorption aid 2.4% of suppository with 0.7 MRC unit [Aus^1.7]-eel calcitonin per 80 mg
[6] = absorption aid 7.0% of suppository with 0.7 MRC unit [Aus^1.7]-eel calcitonin per 80 mg
[7] = absorption aid 15.0% of suppository with 0.7 MRC unit [Aus^1.7]-eel calcitonin per 80 mg
[8] = 2.4 w/v % soln, 1 hours after application
[9] = 2.4 w/v % soln, 3 hours after application
[10] = 2.4 w/v % soln, 6 hours after application
[11] = 2.4 w/v % soln, 24 hours after application
[12] = 2.4 w/v % soln, 48 hours after application
[13] = 2.4 w/v % soln, 72 hours after application
[14] = 2.4 w/v % soln, 96 hours after application
[15] = 2.4 w/v % soln, 168 hours after application
[16] = aqueous solution applied dropwise to rabbit eye, Draize evaluation
[17] = 0.1 w/v % soln, 1 hours after application
[18] = 0.1 w/v % soln, 3 hours after application
[19] = 0.1 w/v % soln, 6 hours after application
[20] = 0.1 w/v % soln, 24 hours after application
[21] = 0.1 w/v % soln, 48 hours after application
[22] = 0.1 w/v % soln, 72 hours after application
[23] = 0.1 w/v % soln, 96 hours after application
[24] = 0.1 w/v % soln, 168 hours after application

O=C1CCC(C(=O)O)N1 (racemic) [DL-Pyroglutamic acid]
Decrease of the serum calcium level (%) [1, 4]: 15.2% | Decrease of the serum calcium level (%) [1, 5]: 20.1% | Decrease of the serum calcium level (%) [1, 6]: 31.0% | Primary irritation scores on the eyes: Cornea ([2]; rabbit, in vivo): 0 | Primary irritation scores on the eyes: Iris ([2]; rabbit, in vivo): 0 | irritation to the mucous membrane of the eyes (in words) ([2]; rabbit, in vivo): almost no irritation

CC(=O)Oc1ccccc1C(=O)O [Acetylsalicylic acid, reference compound]
Primary irritation scores on the eyes: Cornea ([2]; rabbit, in vivo): 0 | Primary irritation scores on the eyes: Iris ([2]; rabbit, in vivo): 0 | irritation to the mucous membrane of the eyes (in words) ([2]; rabbit, in vivo): almost no irritation

O=C1O[C@H]([C@@H](O)CO)C(O)=C1O [Ascorbic acid]
Decrease of the serum calcium level (%) [1, 4]: 16.0% | Decrease of the serum calcium level (%) [1, 5]: 22.3% | Decrease of the serum calcium level (%) [1, 6]: 33.1% | Decrease of the serum calcium level (%) [1, 7]: 35.1% | Primary irritation scores on the eyes: Conjunctiva [2, 8]: 3.3 | Primary irritation scores on the eyes: Cornea [2, 8]: 0 | Primary irritation scores on the eyes: Iris [2, 8]: 0 | Primary irritation scores on the eyes: Total [2, 8]: 3.3 | Primary irritation scores on the eyes: Conjunctiva [2, 9]: 1.3 | Primary irritation scores on the eyes: Cornea [2, 9]: 0 | Primary irritation scores on the eyes: Iris [2, 9]: 0 | Primary irritation scores on the eyes: Total [2, 9]: 1.3 | Primary irritation scores on the eyes: Conjunctiva [2, 10]: 1.3 | Primary irritation scores on the eyes: Cornea [2, 10]: 0 | Primary irritation scores on the eyes: Iris [2, 10]: 0 | Primary irritation scores on the eyes: Total [2, 10]: 1.3 | Primary irritation scores on the eyes: Conjunctiva [2, 11]: 0 | Primary irritation scores on the eyes: Cornea [2, 11]: 0 | Primary irritation scores on the eyes: Iris [2, 11]: 0 | Primary irritation scores on the eyes: Total [2, 11]: 0 | Primary irritation scores on the eyes: Conjunctiva [2, 12]: 0 | Primary irritation scores on the eyes: Cornea [2, 12]: 0 | Primary irritation scores on the eyes: Iris [2, 12]: 0 | Primary irritation scores on the eyes: Total [2, 12]: 0 | Primary irritation scores on the eyes: Conjunctiva [2, 13]: 0 | Primary irritation scores on the eyes: Cornea [2, 13]: 0 | Primary irritation scores on the eyes: Iris [2, 13]: 0 | Primary irritation scores on the eyes: Total [2, 13]: 0 | Primary irritation scores on the eyes: Conjunctiva [2, 14]: 0 | Primary irritation scores on the eyes: Cornea [2, 14]: 0 | Primary irritation scores on the eyes: Iris [2, 14]: 0 | Primary irritation scores on the eyes: Total [2, 14]: 0 | Primary irritation scores on the eyes: Conjunctiva [2, 15]: 0 | Primary irritation scores on the eyes: Cornea [2, 15]: 0 | Primary irritation scores on the eyes: Iris [2, 15]: 0 | Primary irritation scores on the eyes: Total [2, 15]: 0 | irritation to the mucous membrane of the eyes (in words) [2, 16]: almost no irritation

N[C@@H](CCC(=O)O)C(=O)O [L-Glutamic acid]
Decrease of the serum calcium level (%) [1, 4]: 11.5% | Decrease of the serum calcium level (%) [1, 5]: 17.2% | Decrease of the serum calcium level (%) [1, 7]: 28.1% | Primary irritation scores on the eyes: Conjunctiva [2, 8]: 3.3 | Primary irritation scores on the eyes: Cornea [2, 8]: 0 | Primary irritation scores on the eyes: Iris [2, 8]: 0 | Primary irritation scores on the eyes: Total [2, 8]: 3.3 | Primary irritation scores on the eyes: Conjunctiva [2, 9]: 2.0 | Primary irritation scores on the eyes: Cornea [2, 9]: 0 | Primary irritation scores on the eyes: Iris [2, 9]: 0 | Primary irritation scores on the eyes: Total [2, 9]: 2.0 | Primary irritation scores on the eyes: Conjunctiva [2, 10]: 2.0 | Primary irritation scores on the eyes: Cornea [2, 10]: 0 | Primary irritation scores on the eyes: Iris [2, 10]: 0 | Primary irritation scores on the eyes: Total [2, 10]: 2.0 | Primary irritation scores on the eyes: Conjunctiva [2, 11]: 0 | Primary irritation scores on the eyes: Cornea [2, 11]: 0 | Primary irritation scores on the eyes: Iris [2, 11]: 0 | Primary irritation scores on the eyes: Total [2, 11]: 0 | Primary irritation scores on the eyes: Conjunctiva [2, 12]: 0 | Primary irritation scores on the eyes: Cornea [2, 12]: 0 | Primary irritation scores on the eyes: Iris [2, 12]: 0 | Primary irritation scores on the eyes: Total [2, 12]: 0 | Primary irritation scores on the eyes: Conjunctiva [2, 13]: 0 | Primary irritation scores on the eyes: Cornea [2, 13]: 0 | Primary irritation scores on the eyes: Iris [2, 13]: 0 | Primary irritation scores on the eyes: Total [2, 13]: 0 | Primary irritation scores on the eyes: Conjunctiva [2, 14]: 0 | Primary irritation scores on the eyes: Cornea [2, 14]: 0 | Primary irritation scores on the eyes: Iris [2, 14]: 0 | Primary irritation scores on the eyes: Total [2, 14]: 0 | Primary irritation scores on the eyes: Conjunctiva [2, 15]: 0 | Primary irritation scores on the eyes: Cornea [2, 15]: 0 | Primary irritation scores on the eyes: Iris [2, 15]: 0 | Primary irritation scores on the eyes: Total [2, 15]: 0 | irritation to the mucous membrane of the eyes (in words) [2, 16]: almost no irritation

CCCCCCCCCCCCOS(=O)(=O)[O-].[Na+] [Sodium Laurylsulfate, reference compound]
Primary irritation scores on the eyes: Conjunctiva [2, 17]: 4.0 | Primary irritation scores on the eyes: Cornea [2, 17]: 0 | Primary irritation scores on the eyes: Iris [2, 17]: 0 | Primary irritation scores on the eyes: Total [2, 17]: 4.0 | Primary irritation scores on the eyes: Conjunctiva [2, 18]: 4.0 | Primary irritation scores on the eyes: Cornea [2, 18]: 0 | Primary irritation scores on the eyes: Iris [2, 18]: 0 | Primary irritation scores on the eyes: Total [2, 18]: 4.0 | Primary irritation scores on the eyes: Conjunctiva [2, 19]: 0 | Primary irritation scores on the eyes: Cornea [2, 19]: 0 | Primary irritation scores on the eyes: Iris [2, 19]: 0 | Primary irritation scores on the eyes: Total [2, 19]: 0 | Primary irritation scores on the eyes: Conjunctiva [2, 20]: 0 | Primary irritation scores on the eyes: Cornea [2, 20]: 0 | Primary irritation scores on the eyes: Iris [2, 20]: 0 | Primary irritation scores on the eyes: Total [2, 20]: 0 | Primary irritation scores on the eyes: Conjunctiva [2, 21]: 0 | Primary irritation scores on the eyes: Cornea [2, 21]: 0 | Primary irritation scores on the eyes: Iris [2, 21]: 0 | Primary irritation scores on the eyes: Total [2, 21]: 0 | Primary irritation scores on the eyes: Conjunctiva [2, 22]: 0 | Primary irritation scores on the eyes: Cornea [2, 22]: 0 | Primary irritation scores on the eyes: Iris [2, 22]: 0 | Primary irritation scores on the eyes: Total [2, 22]: 0 | Primary irritation scores on the eyes: Conjunctiva [2, 23]: 0 | Primary irritation scores on the eyes: Cornea [2, 23]: 0 | Primary irritation scores on the eyes: Iris [2, 23]: 0 | Primary irritation scores on the eyes: Total [2, 23]: 0 | Primary irritation scores on the eyes: Conjunctiva [2, 24]: 0 | Primary irritation scores on the eyes: Cornea [2, 24]: 0 | Primary irritation scores on the eyes: Iris [2, 24]: 0 | Primary irritation scores on the eyes: Total [2, 24]: 0 | Primary irritation scores on the eyes: Conjunctiva [2, 8]: 13.3 | Primary irritation scores on the eyes: Cornea [2, 8]: 0 | Primary irritation scores on the eyes: Iris [2, 8]: 5.0 | Primary irritation scores on the eyes: Total [2, 8]: 18.3 | Primary irritation scores on the eyes: Conjunctiva [2, 9]: 12.7 | Primary irritation scores on the eyes: Cornea [2, 9]: 0 | Primary irritation scores on the eyes: Iris [2, 9]: 0 | Primary irritation scores on the eyes: Total [2, 9]: 12.7 | Primary irritation scores on the eyes: Conjunctiva [2, 10]: 11.3 | Primary irritation scores on the eyes: Cornea [2, 10]: 0 | Primary irritation scores on the eyes: Iris [2, 10]: 0 | Primary irritation scores on the eyes: Total [2, 10]: 11.3 | Primary irritation scores on the eyes: Conjunctiva [2, 11]: 8.0 | Primary irritation scores on the eyes: Cornea [2, 11]: 0 | Primary irritation scores on the eyes: Iris [2, 11]: 0 | Primary irritation scores on the eyes: Total [2, 11]: 8.0 | Primary irritation scores on the eyes: Conjunctiva [2, 12]: 4.0 | Primary irritation scores on the eyes: Cornea [2, 12]: 0 | Primary irritation scores on the eyes: Iris [2, 12]: 0 | Primary irritation scores on the eyes: Total [2, 12]: 4.0 | Primary irritation scores on the eyes: Conjunctiva [2, 13]: 2.7 | Primary irritation scores on the eyes: Cornea [2, 13]: 0 | Primary irritation scores on the eyes: Iris [2, 13]: 0 | Primary irritation scores on the eyes: Total [2, 13]: 2.7 | Primary irritation scores on the eyes: Conjunctiva [2, 14]: 2.0 | Primary irritation scores on the eyes: Cornea [2, 14]: 0 | Primary irritation scores on the eyes: Iris [2, 14]: 0 | Primary irritation scores on the eyes: Total [2, 14]: 2.0 | Primary irritation scores on the eyes: Conjunctiva [2, 15]: 0.7 | Primary irritation scores on the eyes: Cornea [2, 15]: 0 | Primary irritation scores on the eyes: Iris [2, 15]: 0 | Primary irritation scores on the eyes: Total [2, 15]: 0.7 | irritation to the mucous membrane of the eyes (in words) [2, 16]: fairly strong irritation

O=C([O-])c1ccccc1O.[Na+] [Sodium salicylate, reference compound]
Decrease of the serum calcium level (%) [1, 4]: 11.4% | Decrease of the serum calcium level (%) [1, 5]: 20.3% | Decrease of the serum calcium level (%) [1, 6]: 29.6%

[Asu^1,7 ]-eel calcitonin [[Asu^1.7]eel calcitonin]
Decrease (%) in serum calcium level from that before administration ([3]; after 1 hour): 26.0% | Decrease (%) in serum calcium level from that before administration ([3]; after 2 hours): 30.5% | Decrease (%) in serum calcium level from that before administration ([3]; after 3 hours): 17.5% | Decrease (%) in serum calcium level from that before administration ([3]; after 5 hours): 2.1%
